Experiments:
[1] = system: cultured chick heart cells; assay: Effect of 8-anilino-1-naphthalene sulfonic acid on net uptake of Tc-MIBI in cultured chick heart cells (FIG. 9); format: cell-based; conditions: Gallus gallus, 0.5 h; 8-ANS 10^-4 M, within 30 minutes; read-out: net uptake of Tc-MIBI enhanced over the control
Procedure: FIG. 9. Effect of 8-anilino-1-naphthalene sulfonic acid on net uptake of Tc-M1B1 in cultured chick heart cells. Preparations were incubated for the times indicated in Tc-MIBI loading buffer in the absence (.quadrature.) and presence of 8-ANS ( , 10^-7 M; , 10^-4 M). Each point represents the mean ±SEM of 3-4 determinations.
(§1) Monolayers of spontaneously contractile chick ventricular myocardial cells were obtained from disaggregated 10-day old chick embryo hearts by a slight modification of previously published methods (Horres, C. R., et al., In Pinson, A. (ed.), The Heart Cell in Culture, Boca Raton, CRC Press, pp. 77-108 (1987)). Hearts were trimmed of connective tissue and atria, finely minced and serially exposed to 0.024% (w/v) trypsin in Ca^2+ - and Mg^2+ - free Earle's salt solution for 7 minutes at 37° C. Gentle trituration and agitation on an orbital shaker bath aided disaggregation. Cells released from the first exposure were discarded and cells aspirated from the next four exposures were then added to an equal volume of trypsin deactivating solution consisting of ice-cold culture medium. Cells were centrifuged at 400 g for 10 minutes, resuspended and combined in culture medium, counted with a hemocytometer and diluted to yield a suspension of 5×10^5 cells/ml. […]

[2] = system: cultured chick heart cells; assay: Concentration-effect curve for TPB enhancement of 2-minute uptake of Tc-MIBI (FIG. 2); format: cell-based
Procedure: FIG. 2. Concentration-effect curve for TPB enhancement of 2-minute uptake of Tc-MIBI. Preparations were pre-incubated for 1 minute in control MEBSS buffer containing TPB at the indicated concentrations prior to determination of tracer Tc-MIBI uptake in the continued presence of TPB. Each point represents the mean ±SEM of 3 determinations.
as §1

[3] = Effect of tetraphenylborate on the biodistribution of Tc-MIBI in rats (Table 2); format: in vivo; conditions: TPB vs no TPB
Procedure: The results are expressed as percent injected dose per gram of tissue. […] For this series of experiments, 50 microliters of dimethylsulfoxide lacking or containing 7.2 mM TPB were injected directly into the jugular vein of anesthetized rats immediately prior to the injection of Tc-MIBI (150 microliters; 100 microCuries per 200 microliters).
After 15 minutes, the animal was sacrificed by thoracotomy, organs extracted and placed in test tubes and counted for radioactivity in a standard well-type gamma counter. Tissue wet weights were obtained by subtracting fare weights from total weight of test tubes plus tissue.
Results are expressed as mean ±SEM of three determinations each.

[4] = system: cultured chick heart cells; assay: Influence of TPB and CCCP on (membrane potential-independent) accumulation of Tc-MIBI (FIG. 4); format: cell-based; conditions: TPB; CCCP
Procedure: FIG. 4. […] Preparations were incubated for the times indicated in 5.4 mM Ko control loading buffer containing tracer Tc-MIBI and TPB together (Δ) or in loading buffer containing Tc-MIBI alone (.quadrature.). For the latter incubation, TPB was added to the loading buffer at the arrow and cell content of Tc-MIBI subsequently determined (o). Under each condition, CCCP was added to the loading buffers as indicated by the arrows and cell content of Tc-MIBI determined ( , , ·). Each point is the mean ±SEM of 3 determinations.
Monolayers of spontaneously contractile chick ventricular myocardial cells were obtained from disaggregated 10-day old chick embryo hearts by a slight modification of previously published methods (Horres, C. R., et al., In Pinson, A. (ed.), The Heart Cell in Culture, Boca Raton, CRC Press, pp. 77-108 (1987)). Hearts were trimmed of connective tissue and atria, finely minced and serially exposed to 0.024% (w/v) trypsin in Ca^2+ - and Mg^2+ - free Earle's salt solution for 7 minutes at 37° C. Gentle trituration and agitation on an orbital shaker bath aided disaggregation. Cells released from the first exposure were discarded and cells aspirated from the next four exposures were then added to an equal volume of trypsin deactivating solution consisting of ice-cold culture medium. Cells were centrifuged at 400 g for 10 minutes, resuspended and combined in culture medium, counted with a hemocytometer and diluted to yield a suspension of 5×10^5 cells/ml. 12 ml of suspension were incubated in 100 mm plastic culture dishes containing 7 coverslips (25 mm diameter) placed on the bottom of each dish to serve as substrate for cell growth. Cells were maintained in a humidified atmosphere of 5% CO2 /95% air for 3-4 days yielding a confluent layer of spontaneously contractile myocytes on each coverslip.
Radioactive uptake methods have been described in detail (Piwnica-Worms, D., et al, Circ. (in press). Briefly, coverslips with confluent cells were removed from culture media and pre-equilibrated for 40-60 seconds in MEBSS buffer. Uptake and retention experiments were initiated by immersion of coverslips in 60 mm glass Pyrex dishes containing loading solution consisting of buffer with 0.1-0.6 nM [^99m Tc-MIBI] (0.01-0.4 Ci/nmole; 25-100 uCi/ml). Preparations were removed at various times and rinsed three times in 25 ml volumes of ice-cold (2° C.) isotope-free buffer for 8 seconds each to clear extracellular spaces. Preparations and aliquots of the loading buffer and stock solutions were counted in a well-type sodium iodide gamma counter after which cell protein on each coverslip was extracted in 1% sodium dodecylsulfate with 10 mM sodium borate and assayed by the method of Lowry (Lowry, O. H., et al., J. Biol. Chem. 193:265-275 (1951)). Tc-MIBI binding to glass coverslips without cells was used as an estimate of non-specific adhesion to the substrate ([…] obtained with cellular preparations); this value was subtracted from total uptake determinations to derive the cell-associated counts. Use of generator equilibrium equations (Lamson, M. L., et al., i J. Nucl. Med. 16:639-641 (1975)) allowed calculation of absolute moles of Tc-MIBI in solutions and preparations. Results were therefore expressed as fmol cellular Tc-MIBI/mg protein per nM extracellular Tc-MIBI concentration. […]

cultured heart cells = assay: TPB toxicity at high concentration in cultured heart cells; format: cell-based, chick; conditions: TPB 10^-4 M
[5] = system: cultured chick heart cells; assay: Effect of TPB on net accumulation of Tc-MIBI in cultured chick heart cells (FIG. 1); format: cell-based; conditions: TPB 10^-5 M; P <0.001
Procedure: FIG. 1. Effect of TPB on net accumulation of Tc-MIBI in cultured chick heart cells. Preparations were incubated for the times indicated in Modified Earle's Basic Salt Solution (MEBSS) control buffer containing tracer Tc-MIBI alone (.quadrature.) and with various concentrations of tetraphenylborate: ( ) 10^-9 M; ( ) 5×10^-7 M; (·) 10^-5 M. Results are expressed as fmol cellular Tc-MIBI/mg protein per nM extracellular Tc MIBI. Each point represents the mean ±SEM of 3 determinations.
Control buffer was a modified Earle's balanced salt solution (MEBSS) with the following composition (mN) Na^30, 145; K^+, 5.4; Ca^2, 1.2; Mg^2+, 0.8; Cl, 152; H2 PO4, 0.8; SO4^2-, 0.8; dextrose, 5.6; HEPES, 4.0; and bovine calf serum, 1% (v/v); pH 78.4±0.05; 37° C. […]
Monolayers of spontaneously contractile chick ventricular myocardial cells were obtained from disaggregated 10-day old chick embryo hearts by a slight modification of previously published methods (Horres, C. R., et al., In Pinson, A. (ed.), The Heart Cell in Culture, Boca Raton, CRC Press, pp. 77-108 (1987)). […] Cells were centrifuged at 400 g for 10 minutes, resuspended and combined in culture medium, counted with a hemocytometer and diluted to yield a suspension of 5×10^5 cells/ml. […]

perfused rabbit heart = conditions: ouabain 1.5×10^-6 M; cited from earlier work

O=S(=O)(O)c1cccc2cccc(Nc3ccccc3)c12 [8-anilino-1-naphthalene sulfonic acid]
activation at 100 µM [1]: 25%

c1ccc([B-](c2ccccc2)(c2ccccc2)c2ccccc2)cc1 [TPB, tetraphenylborate]
myocellular uptake of Tc-MIBI increased in a concentration-dependent manner up to [2]: up to 3×10^-5 M
EC50 ([2]; Gallus gallus, 1 minute pre-incubation with TPB, read-out: half-maximal concentration for TPB enhancement of myocellular uptake of Tc-MIBI): 3 µM
Tc-MIBI accumulation in liver, kidney, lung and blood [3]: significant increase in Tc-MIBI accumulation within the tissues
increase in tissue retention of Tc-MIBI, all tissues [3]: 50%
residual CCCP-insensitive Tc-MIBI content, of the TPB-enhanced Tc-MIBI content [4]: 13%
enhancement of Tc-MIBI accumulation / cellular toxicity (cultured heart cells): relatively less enhancement of Tc-MIBI accumulation compared to moderate TPB concentrations suggesting cellular toxicity
peak accumulation of Tc-MIBI, greater than control [5]: 4 fold

CC1OC(OC2CC(O)C3(CO)C4C(O)CC5(C)C(C6=CC(=O)OC6)CCC5(O)C4CCC3(O)C2)C(O)C(O)C1O (stereo not drawn) [oaubain]
net tissue extraction of Tc-MIBI (perfused rabbit heart): alter net tissue extraction of Tc-MIBI

Reference: patent US5277897A, “In vivo enhancement of cellular accumulation of lipophilic cationic organometallic compounds by reduction of intramembrane potential” (Brigham and Women's Hospital, priority 1992, dated 1994)
